row,SMILES,melting point
1,"CCOc1cc(Cc2cnc(N)nc2N)cc2c1OC(C)(C)C=C2c1cccnc1 [Example 50, 5-(8-Ethoxy-2,2-dimethyl-4-pyridin-3-yl-2H-chromen-6-ylmethyl) -pyrimidine-2,4-diamine]",145 °C (dec.)
2,"CCOc1cc(Cc2cnc(N)nc2N)cc2c1OC(C)(C)C=C2C(C)(O)CC (centres unmarked) [Example 44, 2-[6-(2,4-Diamino-pyrimidin-5-ylmethyl)-8-ethoxy-2,2-dimethyl-2H-chromen-4-yl]-butan-2-ol]",127 to 128 °C
3,"CCOc1cc(Cc2cnc(N)nc2N)cc2c1OC(C)(C)C=C2c1ccsc1 [Example 37, 5-(8-Ethoxy-2,2-dimethyl-4-thiophen-3-yl-2H-chromen-6-ylmethyl)-pyrimidine-2,4-diamine]",217 °C (dec.)
4,"CCOc1cc(Cc2cnc(N)nc2N)cc2c1OC(C)(C)C=C2C#CC(C)O (centres unmarked) [Example 15, 4-[6-(2,4-Diamino-pyrimidin-5-ylmethyl)-8-ethoxy-2,2-dimethyl-2H-chromen-4-yl]-but-3-yn-2-ol]",218 to 219 °C
5,"CCOc1cc(Cc2cnc(N)nc2N)cc2c1OC(C)(C)C=C2c1ccc(OC)c(OC)c1 [Example 48, 5-[4-(3,4-Dimethoxy-phenyl)-8-ethoxy-2,2-dimethyl-2H-chromen-6-ylmethyl]-pyrimidine-2,4-diamine]",191 to 192 °C
6,"CCOc1cc(Cc2cnc(N)nc2N)cc2c1OC(C)(C)C=C2C(C)(C)O [Example 43, 2-[6-(2,4-Diamino-pyrimidin-5-ylmethyl)-8-ethoxy-2,2-dimethyl-2H-chromen-4-yl]-propan-2-ol]",209 to 210 °C
7,CCOc1cc(Cc2cnc(N)nc2N)cc2c1OC(C)(C)C=C2[Si](C)(C)C,189 to 190 °C
8,"CCOc1cc(Cc2cnc(N)nc2N)cc2c1OC(C)(C)C=C2c1cccs1 [Example 36, 5-(8-Ethoxy-2,2-dimethyl-4-thiophen-2-yl-2H-chromen-6-ylmethyl)-pyrimidine-2,4-diamine]",213 to 214 °C (dec.)
9,"CCOc1cc(Cc2cnc(N)nc2N)cc2c1OC(C)(C)C=C2c1cccc(F)c1 [Example 34, 5-[8-Ethoxy-4-(3-fluoro-phenyl)-2,2-dimethyl-2H-chromen-6-ylmethyl]-pyrimidine-2,4-diamine]",185 to 186 °C
10,"CCOc1cc(Cc2cnc(N)nc2N)cc2c1OC(C)(C)C=C2c1cccc(N)c1 [Example 56, 5-[4-(3-Amino-phenyl)-8-ethoxy-2,2-dimethyl-2H-chromen-6-ylmethyl]-pyrimidine-2,4-diamine]",196 to 198 °C (dec.)
11,"CCOc1ccc(C2=CC(C)(C)Oc3c(OCC)cc(Cc4cnc(N)nc4N)cc32)cc1 [Example 52, 5-[8-Ethoxy-4-(4-ethoxy-phenyl)-2,2-dimethyl-2H-chromen-6-ylmethyl]-pyrimidine-2,4-diamine]",186 to 188 °C
12,"CCOc1cc(Cc2cnc(N)nc2N)cc2c1OC(C)(C)C=C2c1ccncc1 [Example 47, 5-(8-Ethoxy-2,2-dimethyl-4-pyridin-4-yl-2H-chromen-6-ylmethyl)-pyrimidine-2,4-diamine]",223 to 226 °C
13,"CCOc1cc(Cc2cnc(N)nc2N)cc2c1OC(C)(C)C=C2c1ccc(F)cc1 [Example 35, 5-[8-Ethoxy-4-(4-fluoro-phenyl)-2,2-dimethyl-2H-chromen-6-ylmethyl]-pyrimidine-2,4-diamine]",204 to 205 °C (dec.)
14,"CCOc1cc(Cc2cnc(N)nc2N)cc2c1OC(C)(C)C=C2c1cccc(NC(C)=O)c1 [Example 49, N-{3-[6-(2,4-Diamino-pyrimidin-5-ylmethyl)-8-ethoxy-2,2-dimethyl-2H-chromen-4-yl]-phenyl}-acetamide]",145 °C (dec.)

# Second part, the compound after the results:
row,melting point,SMILES
1,267 °C (dec.),"COc1cc(Cc2cnc(N)nc2N)cc2c1OC(C)(C)C=C2c1cccc(F)c1 [Example 33, 5-[4-(3-Fluoro-phenyl)-8-methoxy-2,2-dimethyl-2H-chromen-6-ylmethyl]-pyrimidine-2,4-diamine]"
2,256 to 257 °C,"CCC1=CC(C)(C)Oc2c(OC)cc(Cc3cnc(N)nc3N)cc21 [Example 3, 5-(4-Ethyl-8-methoxy-2,2-dimethyl-2H-chromen-6-ylmethyl)-pyrimidine-2,4-diamine]"
3,239 to 240 °C,"COc1cc(Cc2cnc(N)nc2N)cc2c1OC(C)(C)C=C2CO [Example 5, [6-(2,4-Diamino-pyrimidin-5-ylmethyl)-8-methoxy-2,2-dimethyl-2H-chromen-4-yl]-methanol]"
4,181 to 182 °C,"COc1cc(Cc2cnc(N)nc2N)cc2c1OC1(C=C2)CCCCC1 [Example 31, 5-[(8-Methoxyspiro[2H-1-benzopyran-2,1′-cyclohexan]-6-yl)methyl]-2,4-pyrimidine-diamine]"
5,253 to 254 °C,"COc1cc(Cc2cnc(N)nc2N)cc2c1OC(C)(C)C=C2c1cccc([N+](=O)[O-])c1 [Example 53, 5-[8-Methoxy-2,2-dimethyl-4-(3-nitro-phenyl)-2H-chromen-6-ylmethyl]-pyrimidine-2,4-diamine]"
6,197 to 199 °C,"CCOc1cc(Cc2cnc(N)nc2N)cc2c1OC(C)(C)C=C2Cl [Example 59, 5-(4-Chloro-8-ethoxy-2,2-dimethyl-2H-chromen-6-ylmethyl)-pyrimidine-2,4-diamine]"
7,187 to 189 °C,"CCOc1cc(Cc2cnc(N)nc2N)cc2c1OC(C)(C)C=C2CO [Example 13, [6-(2,4-Diamino-pyrimidin-5-ylmethyl)-8-ethoxy-2,2-dimethyl-2H-chromen-4-yl]-methanol]"
8,236 to 237 °C,"COc1cc(Cc2cnc(N)nc2N)cc2c1OC(C)(C)C=C2C#CCO [Example 46, 3-[6-(2,4-Diamino-pyrimidin-5-ylmethyl)-8-methoxy-2,2-dimethyl-2H-chromen-4-yl]-prop-2-yn-1-ol]"
9,> 260 °C,"COc1cc(Cc2cnc(N)nc2N)cc2c1OC(C)(C)C=C2c1ccccc1 [Example 42, 5-(8-Methoxy-2,2-dimethyl-4-phenyl-2H-chromen-6-ylmethyl) -pyrimidine-2,4-diamine]"
10,188 to 189 °C,"C=C(C)C1=CC(C)(C)Oc2c(OCC)cc(Cc3cnc(N)nc3N)cc21 [Example 45, 5-(8-Ethoxy-4-isopropenyl-2,2-dimethyl-2H-chromen-6-ylmethyl)-pyrimidine-2,4-diamine]"
11,> 260 °C,"COc1cc(Cc2cnc(N)nc2N)cc2c1OC(C)(C)C=C2c1cccs1 [Example 51, 5-(8-Methoxy-2,2-dimethyl-4-thiophen-2-yl-2H-chromen-6-ylmethyl)-pyrimidine-2,4-diamine]"
12,184 to 186 °C,"CCOc1cc(Cc2cnc(N)nc2N)cc2c1OC(C)(C)C=C2 [Example 19, 5-(8-Ethoxy-2,2-dimethyl-2H-chromen-6-ylmethyl)-pyrimidine-2,4-diamine]"

# — patent publication US6818649B2, “Chromenylmethyl pyrimidinediamines as antibacterial agents” (Basilea Pharmaceutica AG, priority 2000, dated 2004)
